What all share (assay type): cell-based
The target of experiment [1] is T1, BRD9 (Homo sapiens, UniProt Q9H8M2).
T1 sequence (Q9H8M2 1-597): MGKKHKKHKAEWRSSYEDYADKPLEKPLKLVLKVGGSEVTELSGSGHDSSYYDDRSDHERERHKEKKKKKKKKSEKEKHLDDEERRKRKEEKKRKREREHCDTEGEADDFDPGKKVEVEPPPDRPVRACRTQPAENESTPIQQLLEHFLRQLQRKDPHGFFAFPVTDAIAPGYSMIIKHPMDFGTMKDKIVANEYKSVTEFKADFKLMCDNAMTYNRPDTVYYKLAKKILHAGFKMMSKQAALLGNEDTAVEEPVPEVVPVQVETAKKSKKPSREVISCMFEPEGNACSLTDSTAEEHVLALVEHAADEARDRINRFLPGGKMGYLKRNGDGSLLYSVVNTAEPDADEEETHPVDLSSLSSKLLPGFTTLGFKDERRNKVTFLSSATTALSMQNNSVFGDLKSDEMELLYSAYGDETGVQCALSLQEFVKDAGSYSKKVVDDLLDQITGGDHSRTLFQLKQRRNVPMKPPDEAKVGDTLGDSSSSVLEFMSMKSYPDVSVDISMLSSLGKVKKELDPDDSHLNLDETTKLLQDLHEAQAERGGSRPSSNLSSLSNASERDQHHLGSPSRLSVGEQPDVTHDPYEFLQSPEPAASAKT
Briefly: Assay Protocol 1 - Degradation of HiBit-BRD9 in HEK293. To be noted: titration up to 10 μM; for Dmax: HEK293, Assay Protocol 1: HiBit-BRD9 in HEK293, 6 h. The protocol: Assay Protocol 1—Degradation of HiBit-BRD9 in HEK293
HEK293 stably expressing LgBit and containing a HiBit insertion for BRD9 were plated in 384-well tissue culture plates at a density of 8×10^3 per well in a volume of 36 μL and incubated overnight at 37° C. and 5% CO2. Wells were treated with test compounds (11 pt titration up to 10 μM) for 6 h prior to addition of Nano-Glo® Hibit Lytic buffer (1:50 substrate and 1:100 LgBit protein) and reading on a PheraSTAR. Degradation data was plotted and analysed using Prism 8 (Graphpad).
A general note: HiBiT is a short tag that completes a luciferase, so light tracks the accessible tagged protein.

For experiment [2], the target named is T1, BRD9. The experiment is described as follows: Assay Protocol 2 - Degradation of BRD9 (IF) in MV4-11 cells. More on the design: host or cells: MV4-11. To be noted: Assay Protocol 2: BRD9 immunofluorescence, 24 hours. The protocol:
Assay Protocol 2—Degradation of BRD9 (IF)
A suspension of MV4-11 cells (ATCC CRL-9591) was prepared in phenol red-free assay media (IMDM Thermo Scientific 21056023+10% FBS ATCC 302025) and cells were seeded at 20,000 cells per well (45 μL) in sterile black poly-d-lysine coated 384 well plates (Greiner 781948). Compounds were prepared at 1000× final concentration in DMSO, diluted 1:100 in assay media, and 5 μL compound was added to each well of the cell plate. Cells were incubated for 24 hours at 37° C. with 5% CO2. All the following incubations for immunofluorescence staining were at room temperature. 15 μL of 16% PFA was added to each well (3.7% final concentration) and the cells were fixed for 15 min then washed twice with DPBS. Cells were permeabilised with 0.1% Triton X-100 for 10 min, Triton X-100 was removed, then blocked with 1% BSA in DPBS for 1 hour. Cells were stained with 25 μL anti-BRD9 E4Q3F antibody (CST 48306) diluted 1:25600 in 1% BSA in DPBS for 2-3 hours. Wells were washed twice with DPBS then incubated with 25 μL of 1% BSA containing a 1:1000 dilution of Anti-rabbit Alexa Fluor™ 647 secondary antibody (Thermo Scientific A^21244) and 1 μg/mL Hoechst nuclear counter stain (Abcam ab228551) for 1 hour. Wells were washed twice with DPBS prior to imaging on a Perkin Elmer Operetta CLS with 10× air lens. Images were processed using Harmony High-Content Imaging and Analysis Software (Perkin Elmer) and the mean contrast ratio of Alexa Fluor™ 647 in central nuclei was used to quantify BRD9 protein levels. Data was further analysed using Dotmatics software and % BRD9 remaining was calculated by normalisation to average data from high and low control wells (cells treated with DMSO or 100 nM CFT-8634 respectively).

The target in a further experiment is T2, SMARCA2 (Homo sapiens, UniProt P51531).
T2 construct: a HiBiT tag knocked in at the 3′ end of SMARCA2; host or cells: HeLa SMARCA2 HiBiT knock-in cells
The experiment is described as follows: SMARCA2 degradation, HeLa SMARCA2 HiBiT cells (Assay Protocol 1). To be noted: 24 hours after compound addition. Here is the method:
Hela cells with a HiBiT tag knocked in at the 3′ end of SMARCA2 were purchased from Promega (Custom product) (1). HeLa SMARCA2 HiBiT transfected cells were treated with compounds at indicated concentrations using the FlexDrop IQ (Perkin Elmer). 24 hours after compound additions abundance of HiBiT tagged protein was quantified using NanoGlo HiBiT lytic detection system (Promega, N3050). Cell viability was measured using Cell Titre Glow cell viability assay (Promega, G9243). In each case luminescence was measured on a Pherastar platereader.

The mark [3] stands for this setting: Assay Protocol 1: HiBit-BRD9 in HEK293, 6 h.

T2 sequence (P51531 whole entry): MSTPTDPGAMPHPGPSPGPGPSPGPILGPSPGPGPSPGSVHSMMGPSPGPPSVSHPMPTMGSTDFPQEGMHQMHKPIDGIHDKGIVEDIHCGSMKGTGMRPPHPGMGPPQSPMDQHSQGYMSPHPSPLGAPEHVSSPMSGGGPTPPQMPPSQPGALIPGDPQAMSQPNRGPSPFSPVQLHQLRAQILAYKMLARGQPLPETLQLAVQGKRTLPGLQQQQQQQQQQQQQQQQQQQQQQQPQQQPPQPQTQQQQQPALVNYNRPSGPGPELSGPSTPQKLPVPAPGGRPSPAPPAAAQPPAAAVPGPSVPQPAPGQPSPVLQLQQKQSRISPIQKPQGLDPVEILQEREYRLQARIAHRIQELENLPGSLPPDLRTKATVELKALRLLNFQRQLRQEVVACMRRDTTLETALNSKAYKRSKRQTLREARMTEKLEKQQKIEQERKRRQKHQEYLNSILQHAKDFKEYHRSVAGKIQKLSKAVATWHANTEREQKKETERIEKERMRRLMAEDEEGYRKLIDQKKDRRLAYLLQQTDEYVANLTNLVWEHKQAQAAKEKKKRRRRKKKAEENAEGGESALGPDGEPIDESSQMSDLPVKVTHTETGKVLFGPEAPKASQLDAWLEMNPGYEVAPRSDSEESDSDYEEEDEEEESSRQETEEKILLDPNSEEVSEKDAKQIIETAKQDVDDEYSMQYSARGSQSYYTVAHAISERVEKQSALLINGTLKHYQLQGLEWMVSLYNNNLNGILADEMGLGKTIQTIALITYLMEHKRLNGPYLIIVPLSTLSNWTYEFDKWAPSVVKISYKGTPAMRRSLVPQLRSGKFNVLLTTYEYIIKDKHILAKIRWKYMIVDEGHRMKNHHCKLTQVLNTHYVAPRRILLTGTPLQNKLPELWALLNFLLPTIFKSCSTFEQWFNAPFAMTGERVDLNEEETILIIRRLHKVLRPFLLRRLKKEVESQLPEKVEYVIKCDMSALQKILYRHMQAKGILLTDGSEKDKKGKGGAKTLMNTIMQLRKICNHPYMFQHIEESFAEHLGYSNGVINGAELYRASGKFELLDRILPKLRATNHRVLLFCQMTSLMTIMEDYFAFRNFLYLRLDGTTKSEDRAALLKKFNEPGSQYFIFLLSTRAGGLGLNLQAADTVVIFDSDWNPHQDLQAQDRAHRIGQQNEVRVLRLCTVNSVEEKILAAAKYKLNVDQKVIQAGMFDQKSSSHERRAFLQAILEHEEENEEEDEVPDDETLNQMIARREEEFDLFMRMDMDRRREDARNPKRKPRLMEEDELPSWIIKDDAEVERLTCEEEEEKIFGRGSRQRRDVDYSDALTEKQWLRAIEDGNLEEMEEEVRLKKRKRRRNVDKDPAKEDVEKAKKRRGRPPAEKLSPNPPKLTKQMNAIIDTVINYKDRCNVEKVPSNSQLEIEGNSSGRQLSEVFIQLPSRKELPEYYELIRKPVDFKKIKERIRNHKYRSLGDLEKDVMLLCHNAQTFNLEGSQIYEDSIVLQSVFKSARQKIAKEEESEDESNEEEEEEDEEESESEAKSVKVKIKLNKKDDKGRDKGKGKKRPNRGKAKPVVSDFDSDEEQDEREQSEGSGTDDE

As to `COc1cc(-c2cn(C)c(=O)c(C)c2C)cc(OC)c1CN(C)C1CCN(C(=O)/C(C#N)=C/c2cccc(Br)n2)CC1` [BRD9z, (E/Z)-3-(6-bromopyridin-2-yl)-2-(4-((2,6-dimethoxy-4-(1,4,5-trimethyl-6-oxo-1,6-dihydropyridin-3-yl)benzyl)(methyl)amino)piperidine-1-carbonyl)acrylonitrile], the DC50 at BRD9 [1] (setting [3]) and at BRD9 [2] was less than 25 nM throughout. The Dmax (commonly the largest share of the target that was removed) at BRD9 [1] was no less than 70%.
Take `CC(C)[C@@H]1CN(C(=O)/C(C#N)=C/C(C)(C)C)C[C@H]1C(=O)N[C@@H]1CCCN(c2cc(-c3ccccc3O)nnc2N)C1` [SMARCA2j]: the Dmax on SMARCA2 was in the range of 65 to 80%.
On to `CC(C)(C)/C=C(\C#N)C(=O)N1CCN(CC(=O)N2CCc3[nH]c4nnc(-c5ccccc5O)cc4c3C2)CC1` [SMARCA2e], for which, at SMARCA2, the Dmax lay within 50 to 65%.
As to `COc1cc(-c2cn(C)c(=O)c(C)c2C)cc(OC)c1CN(C)C1CCN(C(=O)/C(C#N)=C/C(C)(C)C)CC1` [BRD9d, (E/Z)-2-(4-((2,6-dimethoxy-4-(1,4,5-trimethyl-6-oxo-1,6-dihydropyridin-3-yl)benzyl)(methyl)amino)piperidine-1-carbonyl)-4,4-dimethylpent-2-enenitrile], the DC50 at BRD9 [1] (setting [3]) and on BRD9 [2] was less than 25 nM each time.
As for `COc1cc(-c2cn(C)c(=O)c(C)c2C)cc(OC)c1CN1CCN(C(=O)/C(C#N)=C/c2nccs2)CC1` [BRD9g, (E/Z)-2-(4-(2,6-dimethoxy-4-(1,4,5-trimethyl-6-oxo-1,6-dihydropyridin-3-yl)benzyl)piperazine-1-carbonyl)-3-(thiazol-2-yl)acrylonitrile], the DC50 (in general, the concentration giving 50% degradation) at BRD9 [1] (setting [3]) was greater than 200 nM. At BRD9 [1], this compound came in with a Dmax of 30 to 50%.
On to `COc1cc(-c2cn(C)c(=O)c(C)c2C)cc(OC)c1CN1CCN(C(=O)[C@@H]2CN(C(=O)/C(C#N)=C/c3nccs3)C[C@H]2c2ccccc2)CC1` [BRD9ai], for which the Dmax lay in the range of 30 to 50% on BRD9 [1] and 50 to 70% on BRD9 [2].
As for `COc1cc(-c2cn(C)c(=O)c(C)c2C)cc(OC)c1CN1CCN(C(=O)/C(C#N)=C/C(C)(C)C)CC1` [BRD9a, (E/Z)-2-(4-(2,6-dimethoxy-4-(1,4,5-trimethyl-6-oxo-1,6-dihydropyridin-3-yl)benzyl)piperazine-1-carbonyl)-4,4-dimethylpent-2-enenitrile], the DC50 on BRD9 [1] (setting [3]) was 25 to 200 nM; on BRD9 [2], less than 25 nM.
With `COc1cc(-c2cn(C)c(=O)c(C)c2C)cc(OC)c1CN(C)C1CCN(C(=O)/C(C#N)=C/C23CC(C2)C3)CC1` (mixture of isomers) [BRD9ae, (E/Z)-3-(bicyclo[1.1.1]pentan-1-yl)-2-(4-((2,6-dimethoxy-4-(1,4,5-trimethyl-6-oxo-1,6-dihydropyridin-3-yl)benzyl)(methyl)amino)piperidine-1-carbonyl)acrylonitrile], the DC50 at BRD9 [1] (setting [3]) and on BRD9 [2] was less than 25 nM each time. The Dmax on BRD9 [1] and on BRD9 [2] was no less than 70% throughout.
For the compound `COc1ccc([C@@H]2CN(C(=O)/C(C#N)=C/c3nccs3)C[C@H]2C(=O)N2CCN(Cc3c(OC)cc(-c4cn(C)c(=O)c(C)c4C)cc3OC)CC2)cc1` [BRD9be], at BRD9 [1] (setting [3]), the “Dmax^1” value was “++ (++ = ≥50% and <70%)”. At BRD9 [2], the DC50 was less than 25 nM and the “Dmax^2” value was “+++ (+++ = ≥70%)”.
`COc1cc(-c2cn(C)c(=O)c(C)c2C)cc(OC)c1CN1CC2CCC(C1)N2C(=O)/C(C#N)=C/c1nccs1` (mixture of isomers) [BRD9q, (E/Z)-2-(3-(2,6-dimethoxy-4-(1,4,5-trimethyl-6-oxo-1,6-dihydropyridin-3-yl)benzyl)-3,8-diazabicyclo[3.2.1]octane-8-carbonyl)-3-(thiazol-2-yl)acrylonitrile] displayed a DC50 at BRD9 [1] (setting [3]) greater than 200 nM. In addition, at BRD9 [2], the DC50 was greater than 200 nM and the Dmax lay within 50 to 70%.
With `COc1cc(-c2cn(C)c(=O)c(C)c2C)cc(OC)c1CN1CCC2(CC1)CCN(C(=O)/C(C#N)=C/c1cccc(Br)n1)CC2` [BRD9r, (E/Z)-3-(6-bromopyridin-2-yl)-2-(9-(2,6-dimethoxy-4-(1,4,5-trimethyl-6-oxo-1,6-dihydropyridin-3-yl)benzyl)-3,9-diazaspiro[5.5]undecane-3-carbonyl)acrylonitrile], the DC50 at BRD9 [1] (setting [3]) and on BRD9 [2] was less than 25 nM throughout. This compound gave a Dmax on BRD9 [1] of no less than 70%.
Take `COc1ccc([C@@H]2CN(C(=O)/C(C#N)=C/c3nccs3)C[C@H]2C(=O)N2CCN(Cc3c(OC)cc(-c4cn(C)c(=O)c(C)c4C)cc3OC)CC2)cc1` [BRD9ah]: at BRD9 [1], the Dmax was in the range of 30 to 50%. In addition, on BRD9 [2], the DC50 is less than 25 nM and the maximal degradation (Dmax) was no less than 70%.
Compound `COc1cc(-c2cn(C)c(=O)c(C)c2C)cc(OC)c1CN1C2CC1CN(C(=O)/C(C#N)=C/c1nccs1)C2` (mixture of isomers) [BRD9n, (E/Z)-2-(6-(2,6-dimethoxy-4-(1,4,5-trimethyl-6-oxo-1,6-dihydropyridin-3-yl)benzyl)-3,6-diazabicyclo[3.1.1]heptane-3-carbonyl)-3-(thiazol-2-yl)acrylonitrile] displayed a DC50 on BRD9 [1] (setting [3]) of less than 25 nM. Further, on BRD9 [2], the 50% degradation concentration (DC50) is less than 25 nM and the Dmax is no less than 70%.
`COc1cc(-c2cn(C)c(=O)c3ccsc23)cc(OC)c1CN1CCN(C(=O)/C(C#N)=C/C(C)(C)C)CC1` [BRD9w, (E/Z)-2-(4-(2,6-dimethoxy-4-(5-methyl-4-oxo-4,5-dihydrothieno[3,2-c]pyridin-7-yl)benzyl)piperazine-1-carbonyl)-4,4-dimethylpent-2-enenitrile] came in with a DC50 at BRD9 [1] (setting [3]) of 25 to 200 nM.
In turn, `COc1cc(-c2cn(C)c(=O)c(C)c2C)cc(OC)c1CN1C2CC1CN(C(=O)/C(C#N)=C/c1cccc(Br)n1)C2` (mixture of isomers) [BRD9o, (E/Z)-3-(6-bromopyridin-2-yl)-2-(6-(2,6-dimethoxy-4-(1,4,5-trimethyl-6-oxo-1,6-dihydropyridin-3-yl)benzyl)-3,6-diazabicyclo[3.1.1]heptane-3-carbonyl)acrylonitrile] returned a DC50 at BRD9 [1] (setting [3]) of less than 25 nM. Besides, on BRD9 [2], the DC50 is less than 25 nM and the Dmax is no less than 70%.
On to `COc1cc(-c2cn(C)c(=O)c(C)c2C)cc(OC)c1CN1C2CC1CN(C(=O)/C(C#N)=C/C1(C(F)(F)F)CCC1)C2` (mixture of isomers) [BRD9p, (E/Z)-2-(6-(2,6-dimethoxy-4-(1,4,5-trimethyl-6-oxo-1,6-dihydropyridin-3-yl)benzyl)-3,6-diazabicyclo[3.1.1]heptane-3-carbonyl)-3-(1-(trifluoromethyl)cyclobutyl)acrylonitrile], for which, at BRD9 [2], the DC50 was in the range of 25 to 200 nM and the Dmax was 50 to 70%.
On BRD9 [1] (setting [3]), `COc1cc(-c2cn(C)c(=O)c(C)c2C)cc(OC)c1CN1CC2CC(C1)N2C(=O)/C(C#N)=C/c1nccs1` (mixture of isomers) [BRD9l, (E/Z)-2-(3-(2,6-dimethoxy-4-(1,4,5-trimethyl-6-oxo-1,6-dihydropyridin-3-yl)benzyl)-3,6-diazabicyclo[3.1.1]heptane-6-carbonyl)-3-(thiazol-2-yl)acrylonitrile] returned a DC50 greater than 200 nM. The Dmax at BRD9 [2] was in the range of 30 to 50%.

(Values after patent US20260232812A1, “BIFUNCTIONAL MOLECULES FOR TARGETED PROTEIN DEGRADATION” (Amphista Therapeutics Limited, priority 2022, published 2026).)
